Patent US20230404980A1, “METHODS OF TREATING SPONDYLOARTHRITIS OR SYMPTOMS THEREOF” (UNIVERSITY HEALTH NETWORK, priority 2020, published 2023)

Legend:
[1] = cited from earlier work
curdlan-treated SKG mice [2] = assay: Curdlan-treated SKG mouse model of SpA: clinical scores, histopathology, microCT; assay type: in vivo
Protocol: (§1) Methods: Curdlan (β-glucan) or MIF-plasmid (mini-circle) treated SKG mice (8-10 weeks) were used as SpA mouse models. The expression of MIF in serum or tissues was measured by ELISA, quantitative PCR (qPCR), western blotting, immunohistochemistry (IHC) and/or immunofluorescence (IF). MIF knockout (KO) SKG mice were generated as MIF deficiency mice. MIF inhibitor (MIF098) was used to block the function of MIF in SpA mouse models to assess the therapeutic or prophylactic effects in a curdlan-treated SpA mouse model. Populations of immunological cells were assessed by flow cytometry. Anti-Gr-1 monoclonal antibody (mAb) or isotype control mAb was used to block the function of neutrophils or monocytes. Clinical scores, histopathology and microCT imaging were used to assess the severity of inflammation in the various tissues of the mouse models.
#1. Animal model, treatments and clinical scoring: Female and male SKG mice (age 8-10 weeks) were injected with PBS, curdlan (3 mg/mouse, i.p.), MIF-plasmid (EEV, 5 μg/mouse, i.v., from systemic biosciences), or control-plasmid (5 μg/mouse, i.v., from systemic biosciences) to induce SpA phenotype and weekly observed the clinical manifestations of inflammation and NBFs over 8 weeks (n=10 mice/group). C57BL/6 and BALB/c mice (age 8-10 weeks) were also subjected to MIF- or control-plasmid injection to observe clinical symptoms. MIF- or control plasmid was administered by HDD tail vein injection as previously described (11). We also generated Mif−/− (KO) SKG mice by crossing SKG mice and BALB/c Mif KO mice (22).
(§2) After 1 or 4 weeks post-curdlan treatment, we injected MIF antagonist (MIF098; 40 mg/kg, twice/day, i.p.) (23) or control vehicle [PEG400 (Sigma, cat#91893) and HP-P-P-CD (Sigma, cat#C0926)] to assess the prophylactic and therapeutic effects of the MIF098 on the inflammation and NBFs in the SpA mouse model until 8 weeks post-curdlan treatment. Anti-mouse Gr-1 antibody (100 μg/mouse, Life Technologies) or isotype IgG monoclonal antibodies (100 μg/mouse, Life Technologies) were administered on day 3, 6, 9, 12 and 15 post-curdlan treatment.
(§3) Clinical scores for SpA-related manifestations were assessed based on severity scales (Table 1); arthritis, maximum 6 points; dermatitis, maximum 2 points; blepharitis, maximum 2 points). The scores were evaluated at least 2 independent scorers in a blinded fashion and final scores were the average of the observations. At the endpoint, ankle joints, spleen and lymph nodes (PLNs and MLNs) were dissected for FACS, one ankle was dissected prior to storage in RNA later for qPCR unless used for FACS, the other ankle was kept intact and fixed in 10% neutral buffered formalin for histopathological assessments. The upper tail spine, pelvis, eyes and ileum were dissected and fixed in 10% neutral buffered formalin for histopathology. For ankle digestion, skin was peeled off and toes (at distal phalanges) and tibia (˜0.5 cm above tibia) were cut off. After flushing bone marrow, the tissue was digested with RPMI culture media containing hyaluronidase and collagenase type VIII for 1 h at 37° C. in incubator. Following passing through 70 μm of cell strainer and RBC lysis treatment, cells were centrifuged and used for FACS analysis.
Ankle joints, tail spine, and pelvis were fixed in 10% neutral buffered formalin for at least 72 h, decalcified in 10% EDTA (BioShop) for 14-21 days and embedded in paraffin. Eyes and ileum were fixed in formalin for at least 72 h without decalcification. Serial sections (4 μm) were stained with hematoxylin and eosin (H&E; Fisher Scientific). To assess endochondral ossification, safranin O/ fast green staining was also applied to NBF in distal tibia as previously described (24, 25). For histological scores, multiple sections (three sections approximately 40-80 μm apart) per joint sample were evaluated by 2 independent scorers in a blinded fashion according to histological assessments as previously reported (11, 24). […]

curdlan-treated SKG mice [3] = assay: Flow cytometry of immune cell populations from curdlan-treated SKG mice; assay type: in vivo, mouse
Protocol: as §1, §2, §3
For all panels, single cell suspensions were first stained with a fixable live dead stain (L/D NIR, Invitrogen, cat#L10119) as directed by the manufacturers. Cells were blocked with FcX (BioLegend, cat#101320) or Monocyte Blocker (BioLegend, cat#426102) prior to staining with surface antibodies. For experiments in which transcription factors were stained, cells were fixed and permeabilized with True-Nuclear kit (BioLegend, cat#424401) as directed. For experiments in which cytokines were stained, cells were fixed with a PFA buffer and permeabilized with intracellular staining buffer (BioLegend, cat#420801 and cat#421002) as indicated. Brefeldin A (BioLegend, cat#420601) with or without PMA/ionomycin (BioLegend, cat#423302) were used for in vitro stimulations to detect intracellular cytokines. Data were acquired on LSR II or Canto II (BD) and analyzed with FlowJo (version 10.6, Becton Dickinson).

human Tregs = assay: Th17 acquisition assay in human Tregs and cytokine measurement; assay type: cell-based; conditions: rhMIF 50 ng/ml, 12 days
Protocol: Human naïve CD4+ T cells and Tregs (CD4+CD25+CD127low) were isolated from PBMCs of healthy male controls without any history of back pain, arthritis, and joint injuries (age: 18-40, n=4 individuals in total) using the human naïve T cells isolation kit (STEM CELL, Cat #19555) and Treg isolation kit (STEM CELL, cat#18063), respectively. Isolated human Tregs (3×10^4 cells/well) were cultured in the complete IMDM culture media containing ImmunoCult™ Human CD3/CD28/CD2 T Cell Activator (25 μl/ml, STEMCELL, cat#10970), and rhIL-2 (100 IU/ml, BioLegend, cat#589102) alone or in combination with or without rhMIF (50 ng/ml, BioLegend, cat#599404), rhIL-1β (25 ng/ml, BioLegend, cat#579402) and rhIL-23 (100 ng/ml, BioLegend, cat#574102) for 12 days. Each culture media was replaced ever 2-3 days. The cells were used for further analysis.
Released cytokine in cell culture supernatant on day 12 was quantified using the LEGENDplex Human Th17 Cytokine Panel (BioLegend, cat#741032) according to the manufacturer's instructions.
For all panels, single cell suspensions were first stained with a fixable live dead stain (L/D NIR, Invitrogen, cat#L10119) as directed by the manufacturers. Cells were blocked with FcX (BioLegend, cat#101320) or Monocyte Blocker (BioLegend, cat#426102) prior to staining with surface antibodies. For experiments in which transcription factors were stained, cells were fixed and permeabilized with True-Nuclear kit (BioLegend, cat#424401) as directed. […] Data were acquired on LSR II or Canto II (BD) and analyzed with FlowJo (version 10.6, Becton Dickinson).
The concentration of MIF in SKG mice or culture supernatant media and the concentration of IL-17A in the human Tregs culture media were assessed by mouse MIF ELISA kit (LEGEND MAX™ Mouse MIF ELISA Kit, BioLegend, cat# 44107) and Human IL-17A ELISA kit (LEGEND MAX™ Human IL-17A ELISA Kit, BioLegend, cat# 433917) were used, respectively. Samples were analyzed according to the manufacture's instruction.

[4] = prophylactic: MIF098 40 mg/kg i.p. twice daily from 1 to 8 weeks post-curdlan, female SKG mice, vs CTL
[5] = SKG SpA mouse model, summary of Example 1
[6] = prophylactic MIF098, 8 weeks post-curdlan, vs CTL

## CC(C)C(=O)c1c(C(C)C)nn2ccccc12 [Ibudilast, 2-methyl-1-(2-propan-2-ylpyrazolo[1,5-a]pyridin-3-yl)propan-1-one]
[1]; clinical trials for asthma and multiple sclerosis
  toxicity in clinical trials: minimal toxicity
[1]; single 30-mg dose followed by 14 days of 30 mg b.i.d, healthy adults
  safety: generally safe

## C=C1Cc2ccc(C)cc2C1Cc1cccc(C)c1 (stereo not shown) [MIF098]
curdlan-treated SKG mice [2]; SKG SpA mouse model, MIF blockade
  SpA clinical manifestations (colitis, psoriasis, arthritis in axial and peripheral joints): dramatically suppressed or attenuated
curdlan-treated SKG mice [2]; prophylactic, 8 weeks post-curdlan, vs CTL
  inflammation in the ankle, tail spine, sacroiliac joints, and ileum (histology and histopathology scoring): Lower severity of inflammation
curdlan-treated SKG mice [2]; prophylactic, distal tibia, 8 weeks post-curdlan, vs CTL
  new bone formation (NBF), microCT imaging and histological assessments: did not display an evident NBF
curdlan-treated SKG mice [2]; [4]
  severity of blepharitis (clinical score): reduced severity
  severity of psoriasis-like dermatitis (clinical score): reduced severity
curdlan-treated SKG mice [2]; prophylactic: MIF098 40 mg/kg i.p. twice daily from 1 to 8 weeks post-curdlan, female SKG mice, vs vehicle control (CTL)
  severity of arthritis (clinical score): reduced severity
curdlan-treated SKG mice [2]; therapeutic: MIF098 from 4 weeks to 8 weeks post-curdlan, female SKG mice, vs CTL
  severity of psoriasis-like dermatitis: reduced the severity
curdlan-treated SKG mice [2]; therapeutic: MIF098 from 4 weeks to 8 weeks post-curdlan, vs CTL
  new bone formation (NBF), histological assessments: reduced
curdlan-treated SKG mice [2]; therapeutic: MIF098 injected from 4 weeks to 8 weeks post-curdlan, female SKG mice, vs CTL
  severity of arthritis: reduced the severity
curdlan-treated SKG mice [3]; [5]
  populations of Th17: decreased populations of Th17
  regulatory T (Treg) cells: increased
curdlan-treated SKG mice [3]; curdlan-treated SKG mice, 8 weeks post-curdlan, vs CTL
  RORγt+Foxp3+CD4+ T cells: decreased
curdlan-treated SKG mice [3]; [6]
  frequency of ILC3s in PLNs: significantly deceased
  frequency of Th17 lineage cells in PLNs: significantly deceased
  percentage of Th17 lineage cells in spleen: no significant difference
  percentage of Tregs (PLNs): significant increase
  percentage of Tregs in spleen: significant increase
  percentage of inflammatory macrophages in the ankle joints: no difference between groups
  percentage of patrolling macrophages in the ankle joints: increase
curdlan-treated SKG mice [3]; prophylactic MIF098, curdlan-treated SKG mice, vs CTL
  ILC2s: remarkably increased

B1: rhMIF: recombinant human MIF (BioLegend) used to stimulate human Tregs (protein, UniProt P14174 2-115, looked up)
Macrophage migration …: PMFIVNTNVPRASVPDGFLSELTQQLAQATGKPPQYIAVHVVPDQLMAFGGSSEPCALCSLHSIGKIGGAQNRSYSKLLCGLLAERLRISPDRVYINYYDMNAANVGWNNSTFA
Human Tregs
  release of IL-6: without increased release
Human Tregs; in the presence of IL1β and IL23, vs without rhMIF
  frequency of RORγt+CD4+ T cells from Tregs: increased
Human Tregs; vs control-treated Tregs
  secretion of IL-17A into the culture media: significantly higher
